Structures can show the parent of a compound that is named as a salt.

T1 sequence (Q02293 whole entry, one chain of several): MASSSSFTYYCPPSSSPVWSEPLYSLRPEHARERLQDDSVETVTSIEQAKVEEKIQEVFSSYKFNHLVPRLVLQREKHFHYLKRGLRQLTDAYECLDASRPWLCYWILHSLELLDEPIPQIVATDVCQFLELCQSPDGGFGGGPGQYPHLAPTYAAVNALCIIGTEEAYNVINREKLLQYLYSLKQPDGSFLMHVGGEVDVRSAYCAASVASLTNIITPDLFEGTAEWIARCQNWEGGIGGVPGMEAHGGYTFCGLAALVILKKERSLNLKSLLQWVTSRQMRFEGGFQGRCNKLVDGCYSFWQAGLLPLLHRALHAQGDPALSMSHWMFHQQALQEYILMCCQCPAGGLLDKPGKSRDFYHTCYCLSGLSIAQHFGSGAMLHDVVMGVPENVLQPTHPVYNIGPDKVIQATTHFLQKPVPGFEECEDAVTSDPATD

The first assay addresses T1, Rat brain protein farnesyltransferase (Rattus norvegicus, UniProt Q02293+Q04631).
T1 construct: Rat brain protein farnesyltransferase activity is measured; from tissue; host or cells: rat brain
Put plainly: % inhibition of farnesylation, scintillation proximity assay with biotin-K Ras B fragment. Type of assay: biochemical. To be noted: Table 2; 1 × 10^-6 M. In a few lines:
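Scintillation proximity read-out of farnesylation, using a biotinylated K Ras B fragment (0.1 mM final) in place of biotin-lamin. Enzyme purified from rat brain; results given as % inhibition.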
`CSCC[C@H](NC(=O)c1ccc(NC(=O)Cc2ccccc2)cc1-c1ccccc1C)C(=O)O` [Example 540]: the % inhibition (in general, the share of the control response that was lost under treatment) at 1 × 10^-6 M came out at 40%.
In the case of `CSCC[C@H](NC(=O)c1ccc(NC(=O)Cc2ccc(C)cc2)cc1-c1ccccc1C)C(=O)O` [Example 541], the “% inhibition at 1 × 10^-6 M” value is 37%.
Still for that read-out and setting: for `COc1ccc(CC(=O)Nc2ccc(C(=O)N[C@@H](CCSC)C(=O)O)c(-c3ccccc3C)c2)cc1` [Example 542] the value was 67%.
Still for that read-out and setting: for `COc1ccccc1CCC(=O)Nc1ccc(C(=O)N[C@@H](CCSC)C(=O)O)c(-c2ccccc2C)c1` [Example 544] the value was 35%; for `CSCC[C@H](NC(=O)c1ccc(CC(Cc2ccccc2)c2ccccc2)cc1-c1ccccc1C)C(=O)[O-].[Li+]` (some centres unmarked) [Example 572], 91%.

Staying with this assay, now noted: read-out: % inhibition at 1 × 10^-6 M.
`CSCC[C@H](NC(=O)c1ccc(CSC2CCCCC2)cc1-c1ccccc1C)C(=O)O` [Example 550, N-[4-cyclohexylthiomethyl-2-(2-methylphenyl)benzoyl]methionine, lithium salt]: the inhibition – broadly, how much of the control response was suppressed – at 1 µM worked out at 96%.
The same measure, in the same setting: for `CSCC[C@H](NC(=O)c1ccc(OCCC2CCCCC2)cc1-c1ccccc1C)C(=O)O` [Example 552, N-[4-(2-cyclohexylethoxy)-2-(2-methylphenyl)benzoyl]methionine, lithium salt] the value was 88%; for `CSCC[C@H](NC(=O)c1ccc(CSCc2ccccc2)cc1-c1ccccc1C)C(=O)O` [Example 554, N-[4-benzylthiomethyl-2-(2-methylphenyl)benzoyl]methionine, lithium salt], 96%.
Take `CSCC[C@H](NC(=O)c1ccc(CSCc2ccc(C)cc2)cc1-c1ccccc1C)C(=O)O` [Example 556, N-[4-(4-methylbenzyl)thiomethyl-2-(2-methylphenyl)benzoyl]methionine, lithium salt]: the inhibition at 1 µM stood at 99%.
Same read-out and setting: the figure for `CSCC[C@H](NC(=O)c1ccc(CSCc2ccccc2C)cc1-c1ccccc1C)C(=O)O` [Example 557, N-[4-(2-methylbenzyl)thiomethyl-2-(2-methylphenyl)benzoyl]methionine, lithium salt] is 93%; for `CSCC[C@H](NC(=O)c1ccc(OCCOC2CCCCC2)cc1-c1ccccc1C)C(=O)O` [Example 565, N-[4-(2-cyclohexyloxy)ethoxy-2-(2-methylphenyl)benzoyl]methionine, lithium salt] it is 94%.

The assay is the same for the next values; noted with them: read-out: % inhibition at 1 × 10^-6 M; Table 2; 1 × 10^-6 M.
For the molecule `CSCC[C@H](NC(=O)c1ccc(CS[C@H](CO)Cc2ccccc2)cc1-c1ccccc1)C(=O)O` [Example 545, N-[4-(3-phenylpropan-1-ol-2-ylthiomethyl)-2-phenylbenzoyl]methionine, sodium salt], the inhibition at 1 µM was 88%.
The same measure, in the same setting: for `CSCC[C@H](NC(=O)c1ccc(OC/C=C(\C)CCC=C(C)C)cc1-c1ccccc1C)C(=O)O` [Example 546, N-[4-geranyloxy-2-(2-methylphenyl)benzoyl]methionine, lithium salt] the value was 97%; for `CSCC[C@H](NC(=O)c1ccc(OC/C=C(\C)CC/C=C(\C)CCC=C(C)C)cc1-c1ccccc1C)C(=O)O` [Example 547, N-[4-farnesyloxy-2-(2-methylphenyl)benzoyl]methionine, lithium salt], 91%.
On the same count and under the same terms, the figure for `CSCC[C@H](NC(=O)c1ccc(OCCC23CC4CC(CC(C4)C2)C3)cc1-c1ccccc1C)C(=O)O` [Example 553, N-[4-(2-adamantan-1-ylethoxy)-2-(2-methylphenyl)benzoyl]methionine] is 92%.
On the same count and under the same terms, the figure for `CSCC[C@H](NC(=O)c1ccc(CS(=O)(=O)Cc2ccccc2)cc1-c1ccccc1C)C(=O)O` [Example 555, N-[4-benzylsulfonylmethyl-2-(2-methylphenyl)benzoyl]methionine] is 85%; for `CSCC[C@H](NC(=O)c1ccc(OC/C=C/c2ccccc2)cc1-c1ccccc1C)C(=O)O` [Example 560, N-[4-(3-phenyl)prop-2-en-1-yloxy-2-(2-methylphenyl)benzoyl]methionine] it is 91%; for `CSCC[C@H](NC(=O)c1ccc(OCCOc2ccccc2)cc1-c1ccccc1C)C(=O)O` [Example 561, N-[4-(2-phenoxy)ethoxy-2-(2-methylphenyl)benzoyl]methionine] it is 91%.
Consider `CSCC[C@H](NC(=O)c1ccc(OCCCC2CCCCC2)cc1-c1ccccc1C)C(=O)O` [Example 564, N-[4-(3-cyclohexylpropoxy)-2-(2-methylphenylbenzoyl]methionine, lithium salt], for which the inhibition at 1 µM was found to be 98%.
Same read-out and setting: for `CSCC[C@H](NC(=O)c1ccc(OCCCOc2ccccc2)cc1-c1ccccc1C)C(=O)O` [Example 566, N-[4-(3-phenoxy)propoxy-2-(2-methylphenyl)benzoyl]methionine] the value was 98%.
Still for that read-out and setting: for `CSCC[C@H](NC(=O)c1ccc(OCCCCOc2ccccc2)cc1-c1ccccc1C)C(=O)O` [Example 568, N-[4-(3-phenoxy)butoxy-2-(2-methylphenyl)benzoyl]methionine. lithium salt] the value was 93%.
For the molecule `CSCC[C@H](NC(=O)c1ccc(COCc2ccccc2)cc1-c1ccccc1)C(=O)O` [Example 575, N-[4-(benzyloxymethyl)-2-phenylbenzoyl]methionine], the inhibition at 1 µM amounted to 70%.
In the case of `Cc1ccccc1-c1cc(COCc2ccccc2)ccc1C(=O)N[C@@H](CCS(C)(=O)=O)C(=O)O` [Example 576, N-2-[4-(benzyloxymethyl)-2-(2-methylphenyl)benzoyl]amino-4-methanesulfonylbutanoic acid lithium salt], the inhibition at 1 µM stood at 88%.

Still in this assay, the particulars now being: read-out: % inhibition at 1 × 10^-7 M.
As to `CSCC[C@H](NC(=O)c1ccc(COCCc2ccco2)cc1-c1ccccc1C)C(=O)O` [Example 531, N-[4-(2-furan-2-ylethoxymethyl)-2-(2-methylphenyl)benzoyl]methionine lithium salt], the inhibition at 0.1 µM is 74%.
On the same count and under the same terms, the figure for `CSCC[C@H](NC(=O)c1ccc(COCc2cc3ccccc3o2)cc1-c1ccccc1C)C(=O)O` [Example 533, N-[4-(benzofuran-2-ylmethoxymethyl)-2-(2-methylphenyl)benzoyl]methionine lithium salt] is 91%.
On the same count and under the same terms, the figure for `CSCC[C@H](NC(=O)c1ccc(COC(Cc2ccccc2)c2ccco2)cc1-c1ccccc1C)C(=O)O` (some centres unmarked) [Example 534, N-[4-(1-furan-2-yl-2-phenylethoxymethyl)-2-(2-methylphenyl)benzoyl]methionine lithium salt] is 84%.
Same read-out and setting: for `CSCC[C@H](NC(=O)c1ccc(COCCc2ccc(-c3ccc(F)cc3)o2)cc1-c1ccccc1C)C(=O)O` [Example 535, N-[4-(5-(4-fluorophenyl)furan-2-ylethoxymethyl)-2-(2-methylphenyl)benzoyl]methionine lithium salt] the value was 89%.
With `CSCC[C@H](NC(=O)c1ccc(COCCc2ccc(-c3ccc(Cl)cc3)o2)cc1-c1ccccc1C)C(=O)O` [Example 536, N-[4-(5-(4-chlorophenyl)furan-2-ylethoxymethyl)-2-(2-methylphenyl)benzoyl]methionine lithium salt], the inhibition at 0.1 µM was determined as 79%.
Still for that read-out and setting: the figure for `CSCC[C@H](NC(=O)c1ccc(COCc2cncs2)cc1-c1ccccc1C)C(=O)O` [Example 539, N-[4-(thiazol-5-ylmethoxymethyl)-2-(2-methylphenyl)benzoyl]methionine lithium salt] is 89%; for `CSCC[C@H](NC(=O)c1ccc(CSCC2CCCCC2)cc1-c1ccccc1C)C(=O)O` [Example 559, N-[4-cyclohexylmethylthiomethyl-2-(2-methylphenyl)benzoyl]methionine, lithium salt] it is 96%; for `CSCC[C@H](NC(=O)c1ccc(CSCCc2ccccc2)cc1-c1ccccc1C)C(=O)O` [Example 562, N-[4-(2-phenyl)ethylthiomethyl-2-(2-methylphenyl)benzoyl]methionine, lithium salt] it is 95%.
The same measure, in the same setting: for `CSCC[C@H](NC(=O)c1ccc(COCc2ccccc2)cc1-c1ccccc1C)C(=O)O` [Example 571, N-[4-(benzyloxymethyl)-2-(2-methylphenyl)benzoyl]methionine lithium salt] the value was 88%.

The assay is the same for the next values; noted with them: read-out: % inhibition at 1 × 10^-7 M; Table 3; 1 × 10^-7 M.
As to `CSCC[C@H](NC(=O)c1ccc(COCc2ccc(C)o2)cc1-c1ccccc1C)C(=O)O` [Example 532, N-[4-(5-methylfuran-2-ylmethoxymethyl)-2-(2-methylphenyl)benzoyl]methioninelithium salt], the inhibition at 0.1 µM amounted to 88%.
Regarding `CSCC[C@H](NC(=O)c1ccc(CSc2ccc3ccccc3c2)cc1-c1ccccc1C)C(=O)O` [Example 551, N-[4-naphth-2-ylthiomethyl-2-(2-methylphenyl)benzoyl]methionine], the inhibition at 0.1 µM is 93%.
For the molecule `COc1ccc(CSCc2ccc(C(=O)N[C@@H](CCSC)C(=O)O)c(-c3ccccc3C)c2)cc1` [Example 558, N-[4-(4-methoxybenzyl)thiomethyl-2-(2-methylphenyl)benzoyl]methionine, lithium salt], the inhibition at 0.1 µM stood at 87%.
Same read-out and setting: for `CSCC[C@H](NC(=O)c1ccc(COc2ccc3ccccc3c2)cc1-c1ccccc1C)C(=O)O` [Example 573, N-[4-(naphth-2-yloxymethyl)-2-(2-methylphenyl)benzoyl]methionine] the value was 72%; for `CSCC[C@H](NC(=O)c1ccc(COc2cccc3ccccc23)cc1-c1ccccc1C)C(=O)O` [Example 574, N-[4-(naphth-1-yloxymethyl)-2-(2-methylphenyl)benzoyl]methionine], 81%.

Staying with this assay, now noted: read-out: % inhibition at 1 × 10^-8 M; Table 4; 1 × 10^-8 M.
`CSCC[C@H](NC(=O)c1ccc(OCCCCC2CCCCC2)cc1-c1ccccc1C)C(=O)O` [Example 567, N-[4-(4-cyclohexyl)butoxy-2-(2-methylphenyl)benzoyl]methionine, lithium salt]: the inhibition at 0.01 µM was found to be 69%.

(Values after US6204293A, “Inhibitors of protein isoprenyl transferases” (University of Pittsburgh, priority 1998, dated 2001).)
